In patent publication US20120059020A1, “PROPHYLACTIC OR THERAPEUTIC AGENT FOR PULMONARY FIBROSIS” (SHIZUOKA COFFEIN CO., LTD, priority 2009, published 2012):

Key:
Solubility test in water = format: physicochemical
Method: Solubility test on a 2Na salt of a typical compound (1) (disodium salt of [5-[[6-[4-phenyl-6-(phenylmethoxy)-2-pyrimidinyl]-2-naphthalenyl]oxy]pentyl]propanedioic acid) used in the present invention in water is shown below.
Water of 20±2° C. was added to the 2Na salt of the compound (1), and the mixture was vigorously shaken for 30 seconds and left standing for 5 minutes. This operation was repeated until the 2Na salt of the compound (1) was completely dissolved. The final amount of water required for the dissolution was determined. The solubility of the 2Na salt of the compound (1) in water of 45±5° C. was determined by similar operation.

[1] = Stability test in aqueous solution (HPLC assay); format: physicochemical; settings: for Purity: aqueous solution 1 g/100 mL, 35° C.
Method: Stability test on the 2Na salt of the compound (1) used in the present invention in an aqueous solution is shown below.
Injectable distilled water was added to 1 g of the 2Na salt of the compound (1) to prepare 100 mL of a sample solution. The sample solution was equally divided. One portion was shielded against light, and the other portion was unshielded. Each of them was stored at 35° C. for 11 days during which these sample solutions were assayed over time using high-performance liquid chromatography and examined for stability.
YMC-Pack ODS-A A-302 (YMC Co., Ltd.) was used as a column, and the column temperature was kept at a constant temperature around 40° C. A tetrahydrofuran/0.1% phosphoric acid (54:46) mixed solution was used as a mobile phase. A flow rate was adjusted such that the retention time of the compound (1) was approximately 7 minutes. An ultraviolet absorptiometer (measurement wavelength: 265 nm) was used as a detector.

[2] = system: mouse models with bleomycin-induced pulmonary fibrosis; assay: In vivo effect on pulmonary fibrosis induced by bleomycin; design: species or system C57BL/6 mice
Source text: The present inventors conducted a test using mouse models with pulmonary fibrosis induced by transtracheally administering bleomycin, for the purpose of studying the antifibrotic action of the propanedioic acid derivative of the present invention in vivo. This experimental model of pulmonary fibrosis is clinically similar to idiopathic pulmonary fibrosis in pathological observations such as increased inflammatory cells and the increased amount of hydroxyproline in an extracellular matrix-constituting collagen ingredient used as an index for fibrosis, and is widely used.
C57BL/6 mice (female, 12 week old, body weight: 20 to 23 g) were anesthetized by the intraperitoneal administration of pentobarbital. The trachea was incised, and bleomycin (NIPPON KAYAKU CO., LTD.) (1.5 mg/kg) dissolved in saline was transtracheally administered thereto. […]
20 days after bleomycin administration, a bronchoalveolar lavage fluid (BALF) was collected from each mouse, and a PAI-1 concentration (ng/mL) in the fluid was measured using an ELISA kit (Mouse PAI-1 ELISA kit, Innovative research Inc.). Subsequently, the amount of hydroxyproline was measured for pulmonary fibrosis evaluation. The amount of hydroxyproline in the lung tissue was measured as the amount in a lung tissue hydrolysate according to the method of Kivirikko et al. (Anal. Biochem. 19, 249-255 (1967)). […]

## O=C([O-])C(CCCCCOc1ccc2cc(-c3nc(OCc4ccccc4)cc(-c4ccccc4)n3)ccc2c1)C(=O)[O-].[Na+].[Na+] [2Na salt of compound (1), disodium salt of [5-[[6-[4-phenyl-6-(phenylmethoxy)-2-pyrimidinyl]-2-naphthalenyl]oxy]pentyl]propanedioic acid]
Solubility test in water; Water (20 ± 2° C.)
  Amount of solvent required for dissolving 1 g: 33 mL
Solubility test in water; Water (45 ± 5° C.)
  Amount of solvent required for dissolving 1 g: 1.2 mL
Solubility test in water; water
  Solubility in water: excellent in solubility in water
[1]; 35° C. for 11 days, light-shielded or unshielded
  Stability of aqueous solution: stable
[1]; light-shielded, 0 days elapsed
  Purity: 99.8%
[1]; light-shielded, 1 day elapsed
  Purity: 99.8%
[1]; light-shielded, 6 days elapsed
  Purity: 99.8%
[1]; light-shielded, 11 days elapsed
  Purity: 99.8%
[1]; unshielded, 0 days elapsed
  Purity: 99.8%
[1]; unshielded, 1 day elapsed
  Purity: 99.8%
[1]; unshielded, 6 days elapsed
  Purity: 99.7%
[1]; unshielded, 11 days elapsed
  Purity: 99.7%
[2]; 1000 ppm in drinking water, free feeding, mice, listed as 2Na salt of the compound (1)
  Fibrotic process of the lung induced by bleomycin: remarkable effectiveness that suppressed the fibrotic process of the lung
[2]; group 2 (late stage): 1000 ppm in drinking water from 8 to 20 days after bleomycin (fibrotic stage), approx. 20 mg/kg/day, measured 20 days after bleomycin
  Amount of hydroxyproline in lung tissue compared with the control group: significantly decreased
